Active and inactive are the calls of the source. The calls are words filed in the database; no cut-off is given here.

The target of assay [1] is T1, Free fatty acid receptor 4 (Homo sapiens, UniProt Q5NUL3).
T1 sequence (Q5NUL3 whole entry): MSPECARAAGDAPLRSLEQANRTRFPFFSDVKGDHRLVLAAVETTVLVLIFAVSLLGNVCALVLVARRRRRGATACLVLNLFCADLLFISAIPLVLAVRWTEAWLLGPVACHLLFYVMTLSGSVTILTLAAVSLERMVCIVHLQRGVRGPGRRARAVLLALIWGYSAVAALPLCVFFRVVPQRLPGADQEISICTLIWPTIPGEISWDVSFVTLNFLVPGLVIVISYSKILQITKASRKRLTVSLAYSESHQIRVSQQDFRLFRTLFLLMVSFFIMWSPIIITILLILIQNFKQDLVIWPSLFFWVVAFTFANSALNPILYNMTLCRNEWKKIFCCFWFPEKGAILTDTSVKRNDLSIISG
Briefly: Agonist activity at human GPR120 expressed in CHO cells assessed as increase in intracellular calcium level by Fluo-4-AM dye based assay. The format is functional, cell-based. In general terms: A change in cytosolic calcium serves as a functional read-out for many receptors and channels.

Assay [2] concerns the target Free fatty acid receptor 1 (Homo sapiens, UniProt O14842). Briefly: Agonist activity at human GPR40 expressed in CHO cells assessed as increase in intracellular calcium level by Fluo-4-AM dye based assay. The format is functional, cell-based.
The next assay is filed under the species Homo sapiens. As to the kind of experiment: Selectivity ratio of EC50 for agonist activity at human GPR40 expressed in CHO cells to EC50 for agonist activity at human GPR120 expressed in CHO cells. The format is cell-based.
Assay [3] concerns the target T2, Free fatty acid receptor 4 (Homo sapiens) (UniProt Q5NUL3).
T2 sequence (whole entry): T1 sequence (Q5NUL3 whole entry)
Briefly: Agonist activity at human GPR120 expressed in CHO cells assessed as increase in intracellular calcium level at 1 uM by Fluo-4-AM dye based assay. The assay is classed as functional, cell-based.

For assay [4], the system named is Mus musculus. As to the kind of experiment: Hypoglycemic activity in ICR mouse assessed as reduction in blood glucose level at 10 mg/kg, po pretreated for 60 mins followed by glucose challenge measured up to 120 mins by OGTT. The format is functional, organism-based.
Assay [5] relates to Mus musculus. As to the kind of experiment: Hypoglycemic activity in ICR mouse assessed as reduction in blood glucose level pretreated orally for 60 mins followed by glucose challenge measured up to 120 mins by OGTT. The assay is classed as functional, organism-based.
For assay [6], the target named is T1, Free fatty acid receptor 4. Briefly: Agonist activity at human GPR120. The assay is classed as functional.

Sequence of Free fatty acid receptor 1 (O14842 whole entry): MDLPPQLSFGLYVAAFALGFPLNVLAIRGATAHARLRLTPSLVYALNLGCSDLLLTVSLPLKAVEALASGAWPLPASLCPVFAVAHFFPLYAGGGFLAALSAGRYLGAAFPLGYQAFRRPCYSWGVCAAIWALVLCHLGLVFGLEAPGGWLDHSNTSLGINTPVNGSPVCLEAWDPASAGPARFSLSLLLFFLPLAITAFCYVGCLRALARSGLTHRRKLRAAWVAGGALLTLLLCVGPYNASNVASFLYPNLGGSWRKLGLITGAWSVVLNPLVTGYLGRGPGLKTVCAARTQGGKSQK

For orientation: EC50 means the concentration needed to bring the measured effect to its halfway point. As to `CO[C@H]1C[C@H](Oc2cc(F)c(F)c(-c3cc(F)c(OCCCCCCC(=O)O)c(F)c3)c2)C1`, the EC50 in assay [1] was more than 100 µM; in assay [2], 3.5 µM.
Turning to `COc1cc(F)c(F)c(-c2cc(F)c(OCCCC(=O)O)c(F)c2)c1`, the EC50 in assay [1] was determined as 0.069 µM; in assay [2] it was 24.4 µM. Also, the Ratio EC50 in the assay listed under Homo sapiens came to 354.
`CO[C@H]1C[C@H](Oc2cc(F)c(F)c(-c3cc(C)c(OCCCC(=O)O)c(C)c3)c2)C1`: the EC50 in assay [1] is 0.874 µM; in assay [2] it was more than 100 µM.
For the compound `CO[C@H]1C[C@H](Oc2cc(F)c(F)c(-c3cc(F)c(S(=O)(=O)CCCC(=O)O)c(F)c3)c2)C1`, the outcome in assay [3] was inactive.
`CO[C@H]1C[C@H](Oc2cc3c(c(-c4cc(F)c(OCCCC(=O)O)c(F)c4)c2)OCO3)C1`: the 50% effective concentration (EC50) in assay [1] was 0.22 µM; in assay [2] it was more than 100 µM.
As to `CO[C@H]1C[C@H](Oc2cc(F)c(F)c(-c3cc(F)c(OCCCCC(=O)O)c(F)c3)c2)C1`, the results for the EC50 in assay [1] and in assay [2] were 0.186 µM and 68.8 µM, respectively. In the assay filed under Homo sapiens, the Ratio EC50 is 370.
In the case of `CO[C@H]1C[C@H](Oc2cc(F)c(F)c(-c3ccc4c(c3)CC[C@H](CCC(=O)O)O4)c2)C1`, the EC50 in assay [1] is 0.463 µM; in assay [2], more than 100 µM. The result in the assay with Mus musculus [4] was Active.
In the case of `CO[C@H]1C[C@H](Oc2cc(F)c(F)c(-c3cc(F)c(OCCCC(=O)NS(C)(=O)=O)c(F)c3)c2)C1`, in assay [3], the outcome was inactive.
Consider `CO[C@H]1C[C@H](Oc2cc(F)c(F)c(-c3cc(F)c(OCCCC(=O)O)c(F)c3)c2)C1`, for which, in the assay on Mus musculus [5], the Activity entry was “Dose-dependent effect”. For the same compound, the figures for the EC50 in assay [1] and in assay [2] were 0.093 µM and more than 100 µM, respectively.
For `CC(C)Nc1ccccc1-c1cc(F)c(OCCCC(=O)O)c(F)c1`, the EC50 in assay [1] was 1.47 µM; in assay [2], more than 100 µM; in assay [6], 0.2 to 2 µM.
As to `CO[C@H]1C[C@H](Oc2cc(F)c(F)c(-c3cc(F)c(SCCCC(=O)O)c(F)c3)c2)C1`, the EC50 in assay [1] was 0.347 µM; in assay [2], more than 100 µM.
As for `COc1cc(-c2cc(O[C@H]3C[C@H](OC)C3)cc(F)c2F)cc(OC)c1OCCCC(=O)O`, the outcome in assay [3] was inactive.
With `CO[C@H]1C[C@H](Oc2cc(F)c(F)c(-c3cc(F)c(OCCCCCCCC(=O)O)c(F)c3)c2)C1`, the 50% effective concentration (EC50) in assay [1] turned out to be 24 µM; in assay [2], 3.48 µM. The Ratio EC50 in the assay filed under Homo sapiens was less than 1.
In the case of `CO[C@H]1C[C@H](Oc2cc(F)c(F)c(-c3cc(F)c(OCCCC(=O)OCCNC(C)=O)c(F)c3)c2)C1`, the result in assay [3] was inactive.
Regarding `CO[C@H]1C[C@H](Oc2ccc([N+](=O)[O-])c(-c3cc(F)c(OCCCC(=O)O)c(F)c3)c2)C1`, the EC50 in assay [1] was 1.48 µM; in assay [2], 29.4 µM. In the assay filed under Homo sapiens, the Ratio EC50 is 20.
`CO[C@H]1C[C@H](Oc2cc(F)c(F)c(-c3cc(F)c(OCC(=O)O)c(F)c3)c2)C1`: in assay [3], the outcome was inactive.
Consider `CO[C@H]1C[C@H](Oc2cc(F)c(F)c(-c3cc(F)c(OCCCC(=O)NS(=O)(=O)c4ccccc4)c(F)c3)c2)C1`, for which, in assay [3], the outcome was inactive.
For `CO[C@H]1C[C@H](Oc2cc(F)c(F)c(-c3cc(F)c(OCCCCCC(=O)O)c(F)c3)c2)C1`, the values for the EC50 in assay [1] and in assay [2] were 0.638 µM and 11 µM, respectively. Further, the Ratio EC50 in the assay listed under Homo sapiens came to 17.
In the case of `Cc1c(COc2cc(F)c(F)c(-c3cc(F)c(OCCCC(=O)O)c(F)c3)c2)cccc1-c1ccccc1`, the result in assay [3] was inactive.
For `CO[C@H]1C[C@H](Oc2cc(F)c(F)c(-c3cc(F)c(OCCC(C)(C)C(=O)O)c(F)c3)c2)C1`, the EC50 is 5.04 µM in assay [1] and more than 100 µM in assay [2].
In the same order, the values of `O=C(O)CCCOc1c(F)cc(-c2cc(OC3CCOCC3)cc(F)c2F)cc1F` are 2.78 µM and more than 100 µM.

For the origin of these results see ChEMBL document CHEMBL4229431, “Discovery of novel selective GPR120 agonists with potent anti-diabetic activity by hybrid design” (Bioorg Med Chem Lett, 2018).
